Converted amounts (≈) assume the structure as drawn. Each block holds one molecule with its values, some of them ahead of it.
How the values were obtained:
[1] = biological target: T1, Nitric oxide synthase, inducible (Mus musculus, UniProt P29477); experiment: Inhibition of mouse iNOS in RAW264.7 cells; format: cell-based
T1 sequence (P29477 whole entry): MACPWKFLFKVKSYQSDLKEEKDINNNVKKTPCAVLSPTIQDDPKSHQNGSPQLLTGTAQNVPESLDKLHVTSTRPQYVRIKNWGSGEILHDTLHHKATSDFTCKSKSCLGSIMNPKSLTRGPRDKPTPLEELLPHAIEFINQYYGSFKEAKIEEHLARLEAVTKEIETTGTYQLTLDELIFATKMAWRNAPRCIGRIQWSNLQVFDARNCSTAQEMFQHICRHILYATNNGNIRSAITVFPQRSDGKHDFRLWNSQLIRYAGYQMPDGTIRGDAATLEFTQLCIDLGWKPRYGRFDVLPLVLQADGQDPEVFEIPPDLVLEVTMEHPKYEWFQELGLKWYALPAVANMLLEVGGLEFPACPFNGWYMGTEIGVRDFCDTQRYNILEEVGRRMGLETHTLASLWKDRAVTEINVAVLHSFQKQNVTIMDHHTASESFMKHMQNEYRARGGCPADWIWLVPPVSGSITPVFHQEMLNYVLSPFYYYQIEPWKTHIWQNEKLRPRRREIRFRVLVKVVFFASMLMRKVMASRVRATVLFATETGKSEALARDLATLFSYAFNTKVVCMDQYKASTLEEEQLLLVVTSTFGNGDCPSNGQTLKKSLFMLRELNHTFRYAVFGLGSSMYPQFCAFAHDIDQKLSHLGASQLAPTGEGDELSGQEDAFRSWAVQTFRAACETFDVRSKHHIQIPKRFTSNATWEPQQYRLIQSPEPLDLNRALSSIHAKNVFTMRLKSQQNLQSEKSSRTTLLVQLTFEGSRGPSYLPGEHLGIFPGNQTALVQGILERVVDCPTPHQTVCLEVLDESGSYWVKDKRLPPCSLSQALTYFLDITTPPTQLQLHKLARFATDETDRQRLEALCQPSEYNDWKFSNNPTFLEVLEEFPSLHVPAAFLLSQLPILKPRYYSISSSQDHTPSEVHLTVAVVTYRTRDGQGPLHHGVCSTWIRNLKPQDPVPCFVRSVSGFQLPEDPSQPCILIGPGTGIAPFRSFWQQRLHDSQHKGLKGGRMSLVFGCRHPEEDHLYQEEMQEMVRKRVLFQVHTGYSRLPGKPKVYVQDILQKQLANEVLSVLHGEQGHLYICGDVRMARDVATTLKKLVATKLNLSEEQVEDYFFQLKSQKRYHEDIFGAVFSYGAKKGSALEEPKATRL

Nitric oxide synthase 1 [2] = biological target: Nitric oxide synthase 1 (Rattus norvegicus, UniProt P29476); experiment: Inhibition of rat cerebellum nNOS; format: tissue-based
Chain of Nitric oxide synthase 1 (Rattus norvegicus, UniProt P29476) (P29476 whole entry): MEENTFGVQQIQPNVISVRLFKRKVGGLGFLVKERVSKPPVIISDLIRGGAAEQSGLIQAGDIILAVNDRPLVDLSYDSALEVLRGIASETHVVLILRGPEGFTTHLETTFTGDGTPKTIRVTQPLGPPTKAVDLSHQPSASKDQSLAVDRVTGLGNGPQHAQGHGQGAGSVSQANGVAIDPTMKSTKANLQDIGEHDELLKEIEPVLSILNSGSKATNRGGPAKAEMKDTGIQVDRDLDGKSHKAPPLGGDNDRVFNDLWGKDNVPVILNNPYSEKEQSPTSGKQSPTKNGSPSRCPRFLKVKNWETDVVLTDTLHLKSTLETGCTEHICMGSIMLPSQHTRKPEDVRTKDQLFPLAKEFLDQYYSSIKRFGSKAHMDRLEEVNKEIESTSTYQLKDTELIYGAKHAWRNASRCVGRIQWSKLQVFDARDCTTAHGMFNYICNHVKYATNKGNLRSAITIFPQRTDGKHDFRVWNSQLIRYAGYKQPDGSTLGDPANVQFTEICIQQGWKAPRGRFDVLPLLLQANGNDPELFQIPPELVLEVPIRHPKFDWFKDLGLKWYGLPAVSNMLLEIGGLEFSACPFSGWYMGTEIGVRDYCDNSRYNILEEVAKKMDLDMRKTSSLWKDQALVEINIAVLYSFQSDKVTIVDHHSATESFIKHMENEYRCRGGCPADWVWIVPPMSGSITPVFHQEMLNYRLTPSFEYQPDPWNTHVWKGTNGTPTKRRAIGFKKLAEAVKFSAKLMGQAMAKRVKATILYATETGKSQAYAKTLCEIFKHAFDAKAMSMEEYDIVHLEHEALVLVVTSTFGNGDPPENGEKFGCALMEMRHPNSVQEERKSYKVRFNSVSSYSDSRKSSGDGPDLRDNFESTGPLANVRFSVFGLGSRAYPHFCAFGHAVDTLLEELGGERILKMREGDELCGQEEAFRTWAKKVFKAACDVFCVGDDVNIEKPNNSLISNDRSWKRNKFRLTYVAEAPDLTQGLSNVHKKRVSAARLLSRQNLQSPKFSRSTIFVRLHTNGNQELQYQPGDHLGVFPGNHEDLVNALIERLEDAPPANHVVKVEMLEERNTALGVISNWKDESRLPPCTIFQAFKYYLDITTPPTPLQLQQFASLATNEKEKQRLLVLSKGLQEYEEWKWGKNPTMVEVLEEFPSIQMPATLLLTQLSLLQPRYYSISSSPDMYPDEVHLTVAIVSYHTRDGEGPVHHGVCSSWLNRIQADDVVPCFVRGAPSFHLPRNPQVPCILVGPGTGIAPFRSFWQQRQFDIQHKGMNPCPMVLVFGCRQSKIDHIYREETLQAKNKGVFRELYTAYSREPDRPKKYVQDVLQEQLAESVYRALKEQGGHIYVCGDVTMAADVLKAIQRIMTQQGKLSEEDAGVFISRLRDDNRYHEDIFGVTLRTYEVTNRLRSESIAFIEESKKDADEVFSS

Nitric oxide synthase 3 [3] = biological target: T2, Nitric oxide synthase 3 (Homo sapiens, UniProt P29474); experiment: Inhibition of human Endothelial cells eNOS; format: cell-based, Endothelial cell
T2 sequence (P29474 whole entry): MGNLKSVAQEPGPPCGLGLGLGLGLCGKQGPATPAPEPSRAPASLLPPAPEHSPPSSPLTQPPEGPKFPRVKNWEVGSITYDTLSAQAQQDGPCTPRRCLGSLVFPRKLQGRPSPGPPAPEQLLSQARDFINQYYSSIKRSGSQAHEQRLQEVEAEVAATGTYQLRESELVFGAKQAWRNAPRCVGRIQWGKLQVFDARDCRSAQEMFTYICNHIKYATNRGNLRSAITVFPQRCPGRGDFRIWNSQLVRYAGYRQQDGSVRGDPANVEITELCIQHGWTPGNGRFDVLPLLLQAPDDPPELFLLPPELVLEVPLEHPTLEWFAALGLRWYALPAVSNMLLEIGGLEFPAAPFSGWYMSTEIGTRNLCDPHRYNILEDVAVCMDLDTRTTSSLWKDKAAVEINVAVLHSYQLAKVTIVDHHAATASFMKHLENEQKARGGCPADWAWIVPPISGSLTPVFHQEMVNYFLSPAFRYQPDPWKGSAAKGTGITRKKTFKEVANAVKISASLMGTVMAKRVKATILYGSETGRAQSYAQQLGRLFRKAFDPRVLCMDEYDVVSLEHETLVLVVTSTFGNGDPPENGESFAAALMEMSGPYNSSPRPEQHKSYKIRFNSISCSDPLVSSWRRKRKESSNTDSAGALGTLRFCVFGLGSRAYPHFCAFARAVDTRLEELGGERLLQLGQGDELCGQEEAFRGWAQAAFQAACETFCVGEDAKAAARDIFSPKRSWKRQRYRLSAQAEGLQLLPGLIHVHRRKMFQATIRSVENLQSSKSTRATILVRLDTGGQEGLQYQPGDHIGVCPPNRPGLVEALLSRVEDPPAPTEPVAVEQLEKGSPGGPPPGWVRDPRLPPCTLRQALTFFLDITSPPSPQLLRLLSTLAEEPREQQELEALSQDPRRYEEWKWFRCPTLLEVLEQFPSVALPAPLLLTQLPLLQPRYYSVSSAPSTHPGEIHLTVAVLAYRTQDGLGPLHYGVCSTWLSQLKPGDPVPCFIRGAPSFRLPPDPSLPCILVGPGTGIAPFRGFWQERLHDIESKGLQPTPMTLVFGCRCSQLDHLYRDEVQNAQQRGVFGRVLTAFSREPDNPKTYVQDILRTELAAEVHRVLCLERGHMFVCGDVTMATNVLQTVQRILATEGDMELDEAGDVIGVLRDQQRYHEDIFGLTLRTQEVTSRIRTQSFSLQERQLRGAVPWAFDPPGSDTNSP

Nitric oxide synthase 3 [4] = biological target: T3, Nitric oxide synthase 3 (Bos taurus, UniProt P29473); experiment: Inhibition of bovine eNOS
T3 sequence (P29473 whole entry): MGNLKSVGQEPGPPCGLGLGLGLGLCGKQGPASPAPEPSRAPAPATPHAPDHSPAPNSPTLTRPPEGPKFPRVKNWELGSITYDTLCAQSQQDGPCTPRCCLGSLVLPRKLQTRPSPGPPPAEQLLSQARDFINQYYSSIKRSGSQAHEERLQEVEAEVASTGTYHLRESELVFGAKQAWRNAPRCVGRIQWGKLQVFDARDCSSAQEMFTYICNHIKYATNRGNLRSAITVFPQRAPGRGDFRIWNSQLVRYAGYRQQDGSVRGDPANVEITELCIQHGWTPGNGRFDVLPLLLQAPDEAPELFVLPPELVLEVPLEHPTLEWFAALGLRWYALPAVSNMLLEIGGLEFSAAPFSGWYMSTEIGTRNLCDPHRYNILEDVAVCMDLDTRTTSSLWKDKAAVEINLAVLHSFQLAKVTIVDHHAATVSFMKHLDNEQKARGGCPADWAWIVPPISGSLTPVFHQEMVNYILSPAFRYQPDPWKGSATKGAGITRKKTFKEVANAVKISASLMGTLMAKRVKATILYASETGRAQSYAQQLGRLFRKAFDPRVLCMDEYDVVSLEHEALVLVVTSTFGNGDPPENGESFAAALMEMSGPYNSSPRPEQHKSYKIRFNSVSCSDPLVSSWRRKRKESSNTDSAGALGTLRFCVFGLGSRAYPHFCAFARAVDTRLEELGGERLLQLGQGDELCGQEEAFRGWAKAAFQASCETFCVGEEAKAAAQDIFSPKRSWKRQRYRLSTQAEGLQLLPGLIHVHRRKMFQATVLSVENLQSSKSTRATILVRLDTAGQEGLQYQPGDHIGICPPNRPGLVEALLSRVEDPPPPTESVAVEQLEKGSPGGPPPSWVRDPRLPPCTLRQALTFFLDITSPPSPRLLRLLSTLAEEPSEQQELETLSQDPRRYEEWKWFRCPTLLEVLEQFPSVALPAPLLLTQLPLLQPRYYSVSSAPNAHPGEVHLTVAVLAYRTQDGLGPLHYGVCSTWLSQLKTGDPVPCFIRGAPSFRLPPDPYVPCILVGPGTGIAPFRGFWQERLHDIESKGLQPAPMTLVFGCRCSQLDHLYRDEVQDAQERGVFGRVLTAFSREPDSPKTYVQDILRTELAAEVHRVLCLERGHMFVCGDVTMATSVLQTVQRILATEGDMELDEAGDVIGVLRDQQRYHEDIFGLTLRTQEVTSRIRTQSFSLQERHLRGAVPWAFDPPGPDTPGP

Nitric oxide synthase 1 [5] = biological target: Nitric oxide synthase 1 (Mus musculus, UniProt Q9Z0J4); experiment: Inhibition of mouse nNOS
[6] = biological target: Nitric oxide synthase, inducible (Rattus norvegicus, UniProt Q06518); experiment: Inhibition of rat iNOS
[7] = biological target: Nitric oxide synthase, inducible (Homo sapiens, UniProt P35228); experiment: Binding affinity to iNOS (unknown origin) assessed as inhibition constant
Chain of Nitric oxide synthase, inducible (Homo sapiens, UniProt P35228) (P35228 whole entry): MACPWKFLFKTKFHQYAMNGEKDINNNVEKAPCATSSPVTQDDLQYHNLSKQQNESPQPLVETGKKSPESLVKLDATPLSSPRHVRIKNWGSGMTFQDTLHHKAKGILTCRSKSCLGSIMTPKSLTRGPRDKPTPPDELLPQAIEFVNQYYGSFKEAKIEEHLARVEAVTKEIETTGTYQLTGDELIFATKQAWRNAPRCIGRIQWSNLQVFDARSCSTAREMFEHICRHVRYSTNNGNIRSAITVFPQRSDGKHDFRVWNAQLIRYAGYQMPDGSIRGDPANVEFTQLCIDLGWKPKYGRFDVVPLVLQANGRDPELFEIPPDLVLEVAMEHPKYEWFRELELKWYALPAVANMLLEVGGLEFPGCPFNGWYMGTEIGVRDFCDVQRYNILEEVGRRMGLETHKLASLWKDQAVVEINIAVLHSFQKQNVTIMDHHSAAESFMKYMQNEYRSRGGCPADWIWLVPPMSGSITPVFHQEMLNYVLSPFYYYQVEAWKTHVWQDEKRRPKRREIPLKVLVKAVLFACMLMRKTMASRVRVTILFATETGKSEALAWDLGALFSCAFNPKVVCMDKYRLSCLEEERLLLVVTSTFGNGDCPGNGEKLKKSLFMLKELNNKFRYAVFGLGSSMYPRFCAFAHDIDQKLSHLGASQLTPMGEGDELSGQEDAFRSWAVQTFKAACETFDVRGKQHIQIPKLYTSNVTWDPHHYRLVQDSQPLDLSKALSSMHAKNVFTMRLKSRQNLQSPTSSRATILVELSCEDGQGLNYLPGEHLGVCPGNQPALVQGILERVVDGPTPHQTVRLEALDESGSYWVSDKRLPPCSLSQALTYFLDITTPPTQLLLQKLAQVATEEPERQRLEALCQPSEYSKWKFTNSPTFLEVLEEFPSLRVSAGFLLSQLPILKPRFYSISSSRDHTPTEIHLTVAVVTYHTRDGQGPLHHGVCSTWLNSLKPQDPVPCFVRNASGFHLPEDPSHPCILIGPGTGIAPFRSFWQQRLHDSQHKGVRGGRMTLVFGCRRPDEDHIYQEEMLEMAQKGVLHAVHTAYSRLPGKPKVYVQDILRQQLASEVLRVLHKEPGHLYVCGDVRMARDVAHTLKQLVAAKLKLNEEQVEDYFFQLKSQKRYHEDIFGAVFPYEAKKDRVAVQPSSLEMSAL

Nitric oxide synthase 1 [8] = biological target: T4, Nitric oxide synthase 1 (Homo sapiens, UniProt P29475); experiment: Binding affinity to nNOS (unknown origin) assessed as inhibition constant
T4 sequence (P29475 whole entry): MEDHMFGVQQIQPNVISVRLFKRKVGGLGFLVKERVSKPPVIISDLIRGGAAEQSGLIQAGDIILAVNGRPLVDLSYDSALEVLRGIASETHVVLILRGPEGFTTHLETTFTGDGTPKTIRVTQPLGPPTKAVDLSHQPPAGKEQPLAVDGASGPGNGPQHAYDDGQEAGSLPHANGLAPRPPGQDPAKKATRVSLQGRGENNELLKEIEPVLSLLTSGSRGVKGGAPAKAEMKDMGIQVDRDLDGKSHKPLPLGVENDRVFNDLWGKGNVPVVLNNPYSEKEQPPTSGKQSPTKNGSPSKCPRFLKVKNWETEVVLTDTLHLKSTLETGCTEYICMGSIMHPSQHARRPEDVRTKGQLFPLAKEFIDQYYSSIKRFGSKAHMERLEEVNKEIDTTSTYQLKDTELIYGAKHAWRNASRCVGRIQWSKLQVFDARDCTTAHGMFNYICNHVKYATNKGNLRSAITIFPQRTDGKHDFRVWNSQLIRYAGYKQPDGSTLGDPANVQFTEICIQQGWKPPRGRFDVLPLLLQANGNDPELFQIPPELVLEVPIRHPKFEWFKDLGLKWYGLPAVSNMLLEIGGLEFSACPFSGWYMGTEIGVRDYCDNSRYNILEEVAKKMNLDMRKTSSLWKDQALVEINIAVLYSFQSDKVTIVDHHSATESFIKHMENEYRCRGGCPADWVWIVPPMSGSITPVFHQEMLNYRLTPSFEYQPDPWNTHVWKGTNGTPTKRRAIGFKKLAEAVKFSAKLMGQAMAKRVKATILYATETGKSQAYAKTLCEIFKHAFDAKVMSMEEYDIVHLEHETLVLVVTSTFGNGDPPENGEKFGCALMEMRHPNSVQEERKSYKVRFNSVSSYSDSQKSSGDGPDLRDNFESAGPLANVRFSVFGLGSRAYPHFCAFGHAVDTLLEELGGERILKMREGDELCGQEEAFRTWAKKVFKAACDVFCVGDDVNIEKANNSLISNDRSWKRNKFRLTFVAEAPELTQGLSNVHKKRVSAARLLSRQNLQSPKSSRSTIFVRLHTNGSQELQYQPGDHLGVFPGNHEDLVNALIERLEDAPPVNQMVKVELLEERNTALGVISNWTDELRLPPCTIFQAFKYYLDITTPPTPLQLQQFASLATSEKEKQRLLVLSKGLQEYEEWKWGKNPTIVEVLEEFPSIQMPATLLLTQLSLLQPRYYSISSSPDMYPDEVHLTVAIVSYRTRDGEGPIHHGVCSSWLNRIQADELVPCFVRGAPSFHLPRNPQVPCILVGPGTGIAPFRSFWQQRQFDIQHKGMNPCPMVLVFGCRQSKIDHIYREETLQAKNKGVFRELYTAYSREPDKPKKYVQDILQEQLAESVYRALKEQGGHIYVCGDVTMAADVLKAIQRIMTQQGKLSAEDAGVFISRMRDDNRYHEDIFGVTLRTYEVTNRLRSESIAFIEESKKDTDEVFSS

Nitric oxide synthase 3 [9] = biological target: T2, Nitric oxide synthase 3; experiment: Binding affinity to eNOS (unknown origin) assessed as inhibition constant
[10] = Inhibition of NOS (unknown origin); parameters: species or system Homo sapiens
Nitric oxide synthase 1 [11] = biological target: T4, Nitric oxide synthase 1; experiment: Binding affinity to GST-tagged nNOS (unknown origin) expressed in Escherichia coli BL21 (DE3) assessed as change in enthalpy
[12] = Permeability of the compound across blood brain barrier at pH 7.4 at 12.5 uM incubated for 4 hrs by PAMPA assay; format: ADME; conditions: read-out: permeability
[13] = Neuroprotective activity in rat hippocampal neuron cells assessed as NMDA-induced cGMP production; format: functional, cell-based; conditions: Hippocampal neurone
Platelet [14] = experiment: Inhibition of AA-induced platelet aggregation in New Zealand White rabbit; format: functional, cell-based; conditions: Oryctolagus cuniculus
Platelet [15] = experiment: Inhibition of ADP-induced platelet aggregation in New Zealand White rabbit; format: functional, cell-based; conditions: Oryctolagus cuniculus
Platelet [16] = experiment: Inhibition of ADP-induced platelet aggregation (unknown origin); format: functional, cell-based
[17] = Water solubility at pH 7.4; format: physicochemical

Structure (SMILES): CN1CCc2ccc(NC(=N)c3cccs3)cc2C1
IC50 [1]: 5 µM
IC50 (Nitric oxide synthase 1 [2]): 0.08 µM
IC50 (Nitric oxide synthase 3 [3]): 24 µM

IC50 (Nitric oxide synthase 3 [4]): 1060 µM
IC50 (Nitric oxide synthase 1 [5]): 28.2 µM
IC50 [6]: 27 µM
Structure (SMILES): FC(F)(F)c1ccccc1-n1ccnc1

Structure (SMILES): N=C(Nc1ccc2c(c1)CNCC2)c1cccs1
IC50 [1]: 5.5 µM
IC50 (Nitric oxide synthase 1 [2]): 0.05 µM
IC50 (Nitric oxide synthase 3 [3]): 10 µM

Structure (SMILES): N=C(N)NN [PIMAGEDINE]
Ki [7]: 16 µM
Ki (Nitric oxide synthase 1 [8]): 830 µM
Ki (Nitric oxide synthase 3 [9]): > 8000 µM

IC50 [10]: 0.71 µM
Structure (SMILES): O=[N+]([O-])c1cccc2cn[nH]c12 [7-NITROINDAZOLE]

Structure (SMILES): COC(=O)[C@@H](N)CCCNC(=N)N[N+](=O)[O-] [L-NAME]
IC50 [10]: 70 µM

deltaH (Nitric oxide synthase 1 [11]): -1.67 kcal/mol
Papp at 4 h, 12.5 µM [12]: 6.07 ×10⁻⁶ cm/s
Structure (SMILES): COC(=O)C[C@H](NC(=O)[C@@H](C)NCCC1CCCCC1)C(=O)N[C@H](C)C(=O)N[C@@H](C(=O)O)C(C)C

IC50 [13]: 2.7 µM
Structure (SMILES): Oc1c(Cl)cc(Cl)cc1CNc1ccc2nn[nH]c2c1

IC50 (Platelet [14]): 0.556 µM
IC50 (Platelet [15]): 0.734 µM
Structure (SMILES): Cc1nc(C)c(COC(=O)c2cccc(OCCCCO[N+](=O)[O-])c2)nc1C

IC50 (Platelet [16]): 0.44 µM
solubility [17]: 2.13 µM (≈ 1.09 µg/mL)
Structure (SMILES): CCCCC(OC(C)=O)c1ccccc1C(=O)O[C@H]1CO[C@H]2[C@@H]1OC[C@H]2OC(=O)NCCO[N+](=O)[O-] (stereo partly specified)
